Data from US20240130957A1, “EXTRACTS OF ISOCHRYSIS SPECIES/TISOCHRYSIS SPECIES” (SYMRISE AG, priority 2020, published 2024).

Legend:
skin = conditions: similar to the effect seen with dihydroxyacetone; cited from earlier work
UVA-induced ROS = assay: Reduction of UVA-induced ROS in organ culture of human skin (DCFH-DA); format: cell-based
Protocol: Organ culture of human skin was performed starting from a skin sample, exciding pieces of approximately 8×3 mm (ø×thickness). Skin samples (6 per treatment) were cultured in an air-liquid interface in a perforated ring of stainless steel in contact with culture medium (modified Williams' E medium).
At start of the skin culture, in parallel to untreated, the formulations 14.1 to 14.3 and 100% tocopherol acetate were applied topically on the skin samples and afterwards they were cultivated overnight. On the next day, the topical treatments were renewed for 1 hour. In parallel, culture medium with 100 μM of 2′,7′-dichlorofluorescin diacetate (DCFH-DA, Sigma #D6883) was prepared. After 1 hour of incubation of the skin samples, the culture medium was replaced by the medium containing DCFH-DA and the skin samples were incubated for 30 minutes. Then, the skin samples were washed in PBS buffer and UVA irradiation (lamp: Bio Sun by Vilber Lourmat, 60 J/cm2) was performed. Afterwards, the skin samples were harvested, cryo-fixed and cut at the cryostat for image acquisition and analysis. The image acquisition was performed using Olympus BX51 microscope and Olympus DP70 camera. Two skin sections for each skin sample were cut and the related images were acquired and analysed. Doing so, 12 images were obtained for each formulation for analysis. Image analysis was performed within the dermis area selected from the upper part by following the perimeter of the basal lamina to the deep dermis. The obtained values from were normalized upon the dimension of the selected area.

Compound | production of free radicals (skin) | reduction of UVA-induced ROS vs untreated UVA-irradiated (UVA-induced ROS; 100% tocopherol acetate, topical) [%] | Modulation vs untreated + UVA (UVA-induced ROS; UVA 60 J/cm2) [%] | Mean ROS score (UVA-induced ROS; UVA 60 J/cm2, topical overnight and renewed 1 hour, untreated no UVA 0.015, untreated + UVA 0.573)
O=C(CO)[C@H](O)CO [Erythrulose, D-Erythrulose] | increase production of free radicals | – | – | –
CC(=O)Oc1c(C)c(C)c2c(c1C)CCC(C)(CCC[C@H](C)CCC[C@H](C)CCCC(C)C)O2 (stereo partly shown) [Tocopherol acetate] | – | 73 | −73 | 0.157
